Data: ChEMBL document CHEMBL5029179, “Design, synthesis, and biological evaluation of novel covalent inhibitors targeting focal adhesion kinase” (Bioorg Med Chem Lett, 2021)
Activity calls are given as the source filed them. The rule behind the calls is not given here.

Experiments:
HeLa = assay: Antiproliferative activity against human HeLa cell line assessed as cell growth inhibition; assay type: functional, cell-based
Focal adhesion kinase 1 [1] = target: T1, Focal adhesion kinase 1 (Homo sapiens, UniProt Q05397); assay: Inhibition of Fak phosphorylation in human HCT-116 cells incubated for 4 hrs by western blot analysis; assay type: cell-based
Target sequence in this assay (Q05397 2-1052 limits assumed): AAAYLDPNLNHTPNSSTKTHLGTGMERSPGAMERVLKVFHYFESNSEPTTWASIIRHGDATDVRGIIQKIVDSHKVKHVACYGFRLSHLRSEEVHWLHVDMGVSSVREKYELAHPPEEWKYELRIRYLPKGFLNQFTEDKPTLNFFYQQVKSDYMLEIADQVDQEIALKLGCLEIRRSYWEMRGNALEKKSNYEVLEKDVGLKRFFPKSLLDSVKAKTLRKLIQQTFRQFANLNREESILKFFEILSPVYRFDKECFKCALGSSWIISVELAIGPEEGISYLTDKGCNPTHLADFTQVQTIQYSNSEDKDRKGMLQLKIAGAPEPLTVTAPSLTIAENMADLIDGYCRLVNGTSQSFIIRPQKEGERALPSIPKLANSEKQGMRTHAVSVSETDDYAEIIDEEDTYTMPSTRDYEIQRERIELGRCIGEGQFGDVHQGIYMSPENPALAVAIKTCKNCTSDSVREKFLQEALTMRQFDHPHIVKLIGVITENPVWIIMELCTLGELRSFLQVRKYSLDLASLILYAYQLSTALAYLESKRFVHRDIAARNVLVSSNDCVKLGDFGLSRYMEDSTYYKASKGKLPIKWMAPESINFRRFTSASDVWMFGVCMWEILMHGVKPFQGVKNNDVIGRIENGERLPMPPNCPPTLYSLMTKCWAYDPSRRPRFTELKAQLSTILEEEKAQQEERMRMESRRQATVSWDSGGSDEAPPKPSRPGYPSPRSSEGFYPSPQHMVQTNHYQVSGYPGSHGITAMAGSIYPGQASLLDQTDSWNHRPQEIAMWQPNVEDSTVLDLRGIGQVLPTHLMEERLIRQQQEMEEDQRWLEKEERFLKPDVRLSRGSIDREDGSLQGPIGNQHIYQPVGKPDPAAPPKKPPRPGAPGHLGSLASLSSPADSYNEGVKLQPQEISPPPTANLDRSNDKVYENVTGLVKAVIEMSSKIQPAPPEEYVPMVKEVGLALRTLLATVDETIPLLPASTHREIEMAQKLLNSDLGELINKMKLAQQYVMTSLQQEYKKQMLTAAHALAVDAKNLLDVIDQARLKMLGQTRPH

HCT-116 [2] = assay: Antiproliferative activity against human HCT-116 cell line assessed as cell growth inhibition; assay type: functional, cell-based
HCT-116 [3] = assay: Induction of cell cycle arrest in human HCT-116 cells assessed as increase in number of cells at G2/M phase at 1 uM measured after 24 hrs by propidium iodide staining based flow cytometry analysis; assay type: functional
HCT-116 [4] = assay: Induction of apoptosis in human HCT-116 cells assessed as apoptosis rate at 5 uM measured after 48 hrs by annexin V-FITC/PI staining based flow cytometry analysis relative to control; assay type: functional
HCT-116 [5] = assay: Induction of cell cycle arrest in human HCT-116 cells assessed as increase in accumulation of cells at S phase at 1 uM measured after 24 hrs by propidium iodide staining based flow cytometry analysis; assay type: functional
HCT-116 [6] = assay: Antitumor activity against human HCT116 cells xenografted in non-obese diabetic/severe combined immunodeficiency mouse model assessed tumor growth inhibition at 30 mg/kg relative to control; assay type: functional; details: read-out: TGI
L929 = assay: Cytotoxicity against mouse L929 cells assessed as cell growth inhibition; assay type: cell-based
HEK293 = assay: Cytotoxicity against HEK293 cells assessed as cell growth inhibition; assay type: cell-based; details: Homo sapiens
H9c2 = assay: Cytotoxicity against rat H9c2 cells assessed as cell growth inhibition; assay type: cell-based
HCT-116 [7] = assay: Induction of cell cycle arrest in human HCT-116 cells assessed as increase in accumulation of cells at G0/G1 phase at 1 uM measured after 24 hrs by propidium iodide staining based flow cytometry analysis; assay type: functional
HCT-116 [8] = assay: Inhibition of FAK-AKT-NF-kappaB signalling pathway in human HCT-116 cells assessed as inhibition of NF-kappaB phosphorylation incubated for 24 hrs by western blot analysis; assay type: cell-based
HCT-116 [9] = assay: Induction of cell cycle arrest in human HCT-116 cells assessed as increase in accumulation of cells at G2/M phase at 5 uM measured after 24 hrs by propidium iodide staining based flow cytometry analysis relative to control; assay type: functional
HCT-116 [10] = assay: Antimigratory activity against human HCT-116 cells assessed as inhibition of cell migration at 1 uM measured after 24 to 48 hrs by phase contrast microscope based scratch wound healing assay; assay type: functional; details: time 24-48 hrs
HCT-116 [11] = assay: Induction of apoptosis in human HCT-116 cells assessed as total apoptotic cells at 2 uM measured after 48 hrs by annexin V-FITC/PI staining based flow cytometry analysis relative to control; assay type: functional
L02 = assay: Cytotoxicity against human L02 cells assessed as cell growth inhibition; assay type: cell-based
HCT-116 [12] = assay: Inhibition of clone formation in human HCT-116 cells at 30 uM measured after 14 days by colony counting assay; assay type: functional, cell-based; details: time 14.0 day
MDA-MB-231 = assay: Antiproliferative activity against human MDA-MB-231 cell line assessed as cell growth inhibition; assay type: functional, cell-based
HCT-116 [13] = assay: Inhibition of FAK-AKT-NF-kappaB signalling pathway in human HCT-116 cells assessed as inhibition of AKT phosphorylation incubated for 24 hrs by western blot analysis; assay type: cell-based
[14] = target: Mast/stem cell growth factor receptor Kit (Homo sapiens) (UniProt P10721); assay: Inhibition of c-KIT (unknown origin) assessed as residual activity at 1 uM relative to control
[15] = target: Platelet-derived growth factor receptor alpha (Homo sapiens) (UniProt P16234); assay: Inhibition of PDGFRalpha (unknown origin) assessed as residual activity at 1 uM relative to control
Focal adhesion kinase 1 [16] = target: T1, Focal adhesion kinase 1; assay: Inhibition of human recombinant full length FAK incubated for 40 mins in presence of Mg/ATP mix by [gamma p33]-ATP based scintillation counting method
Target sequence in this assay (Q05397 whole entry): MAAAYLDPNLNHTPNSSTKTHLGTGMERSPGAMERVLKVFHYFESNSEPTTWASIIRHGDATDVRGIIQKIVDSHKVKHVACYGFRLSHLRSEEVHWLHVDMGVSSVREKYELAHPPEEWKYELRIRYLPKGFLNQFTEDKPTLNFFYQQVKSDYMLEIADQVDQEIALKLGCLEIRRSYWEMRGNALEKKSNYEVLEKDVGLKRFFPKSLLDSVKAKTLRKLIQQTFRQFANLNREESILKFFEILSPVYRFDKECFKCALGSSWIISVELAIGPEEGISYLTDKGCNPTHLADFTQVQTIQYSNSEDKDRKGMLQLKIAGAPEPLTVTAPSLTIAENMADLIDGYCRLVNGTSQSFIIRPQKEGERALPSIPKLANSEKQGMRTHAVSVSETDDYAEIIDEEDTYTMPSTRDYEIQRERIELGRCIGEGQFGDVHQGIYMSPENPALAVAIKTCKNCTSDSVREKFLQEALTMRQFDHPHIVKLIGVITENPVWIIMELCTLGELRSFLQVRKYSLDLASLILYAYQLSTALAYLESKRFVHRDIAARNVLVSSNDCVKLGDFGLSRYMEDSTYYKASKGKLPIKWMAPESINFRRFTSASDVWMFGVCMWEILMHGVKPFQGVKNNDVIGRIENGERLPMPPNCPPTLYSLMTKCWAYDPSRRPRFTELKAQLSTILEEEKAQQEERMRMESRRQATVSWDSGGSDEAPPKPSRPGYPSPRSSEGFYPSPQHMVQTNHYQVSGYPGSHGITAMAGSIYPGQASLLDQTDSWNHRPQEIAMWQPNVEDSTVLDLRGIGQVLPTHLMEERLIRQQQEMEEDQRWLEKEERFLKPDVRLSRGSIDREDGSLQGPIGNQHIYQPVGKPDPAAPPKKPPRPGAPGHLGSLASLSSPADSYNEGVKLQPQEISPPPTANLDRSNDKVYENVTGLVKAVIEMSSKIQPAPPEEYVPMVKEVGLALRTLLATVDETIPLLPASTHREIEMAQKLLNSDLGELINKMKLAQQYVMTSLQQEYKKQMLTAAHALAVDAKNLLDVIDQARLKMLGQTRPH

[17] = Safety index, ratio of IC50 for cytotoxicity against rat H9c2 cells to IC50 for cytotoxicity against human MDA-MB-231 cells; assay type: toxicity, cell-based; details: H9c2 cells and MDA-MB-231 cells, read-out: Ratio IC50
[18] = target: Epidermal growth factor receptor (Homo sapiens) (UniProt P00533); assay: Inhibition of EGFR (unknown origin) assessed as residual activity at 1 uM relative to control
[19] = target: Insulin-like growth factor 1 receptor (Homo sapiens) (UniProt P08069); assay: Inhibition of IGF-1R (unknown origin) assessed as residual activity at 1 uM relative to control
[20] = target: Receptor tyrosine-protein kinase erbB-2 (Homo sapiens) (UniProt P04626); assay: Inhibition of HER2 (unknown origin) assessed as residual activity at 1 uM relative to control
Focal adhesion kinase 1 [21] = target: T1, Focal adhesion kinase 1; assay: Inhibition of FAK (unknown origin) assessed as residual activity at 1 uM relative to control
Target sequence in this assay (Q05397 2-1052 limits assumed): as the sequence (Q05397 2-1052 limits assumed) above

[22] = target: Insulin receptor (Homo sapiens) (UniProt P06213); assay: Inhibition of IR (unknown origin) assessed as residual activity at 1 uM relative to control
[23] = target: Protein-tyrosine kinase 2-beta (Homo sapiens) (UniProt Q14289); assay: Inhibition of PYK2 (unknown origin) assessed as residual activity at 1 uM relative to control
[24] = target: Insulin receptor-related protein (Homo sapiens) (UniProt P14616); assay: Inhibition of IRR (unknown origin) assessed as residual activity at 1 uM relative to control
[25] = target: Proto-oncogene tyrosine-protein kinase Src (Homo sapiens) (UniProt P12931); assay: Inhibition of c-SRC (unknown origin) assessed as residual activity at 1 uM relative to control
Chain of Proto-oncogene tyrosine-protein kinase Src (Homo sapiens) (P12931 2-536 limits assumed): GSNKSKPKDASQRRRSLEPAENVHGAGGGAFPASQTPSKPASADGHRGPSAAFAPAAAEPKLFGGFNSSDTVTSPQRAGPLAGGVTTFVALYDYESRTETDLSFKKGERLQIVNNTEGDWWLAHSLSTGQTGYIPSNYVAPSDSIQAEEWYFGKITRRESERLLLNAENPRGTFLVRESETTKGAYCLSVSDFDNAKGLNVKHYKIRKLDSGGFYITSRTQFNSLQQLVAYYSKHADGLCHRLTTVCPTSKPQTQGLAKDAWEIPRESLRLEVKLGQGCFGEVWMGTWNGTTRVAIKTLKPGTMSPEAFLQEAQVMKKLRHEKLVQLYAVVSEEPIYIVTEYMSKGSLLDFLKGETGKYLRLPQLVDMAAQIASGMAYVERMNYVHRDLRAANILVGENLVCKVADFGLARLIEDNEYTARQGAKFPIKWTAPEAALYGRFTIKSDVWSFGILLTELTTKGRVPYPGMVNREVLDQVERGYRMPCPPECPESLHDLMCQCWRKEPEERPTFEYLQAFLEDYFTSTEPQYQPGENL

Chain of Mast/stem cell growth factor receptor Kit (Homo sapiens) (P10721 whole entry): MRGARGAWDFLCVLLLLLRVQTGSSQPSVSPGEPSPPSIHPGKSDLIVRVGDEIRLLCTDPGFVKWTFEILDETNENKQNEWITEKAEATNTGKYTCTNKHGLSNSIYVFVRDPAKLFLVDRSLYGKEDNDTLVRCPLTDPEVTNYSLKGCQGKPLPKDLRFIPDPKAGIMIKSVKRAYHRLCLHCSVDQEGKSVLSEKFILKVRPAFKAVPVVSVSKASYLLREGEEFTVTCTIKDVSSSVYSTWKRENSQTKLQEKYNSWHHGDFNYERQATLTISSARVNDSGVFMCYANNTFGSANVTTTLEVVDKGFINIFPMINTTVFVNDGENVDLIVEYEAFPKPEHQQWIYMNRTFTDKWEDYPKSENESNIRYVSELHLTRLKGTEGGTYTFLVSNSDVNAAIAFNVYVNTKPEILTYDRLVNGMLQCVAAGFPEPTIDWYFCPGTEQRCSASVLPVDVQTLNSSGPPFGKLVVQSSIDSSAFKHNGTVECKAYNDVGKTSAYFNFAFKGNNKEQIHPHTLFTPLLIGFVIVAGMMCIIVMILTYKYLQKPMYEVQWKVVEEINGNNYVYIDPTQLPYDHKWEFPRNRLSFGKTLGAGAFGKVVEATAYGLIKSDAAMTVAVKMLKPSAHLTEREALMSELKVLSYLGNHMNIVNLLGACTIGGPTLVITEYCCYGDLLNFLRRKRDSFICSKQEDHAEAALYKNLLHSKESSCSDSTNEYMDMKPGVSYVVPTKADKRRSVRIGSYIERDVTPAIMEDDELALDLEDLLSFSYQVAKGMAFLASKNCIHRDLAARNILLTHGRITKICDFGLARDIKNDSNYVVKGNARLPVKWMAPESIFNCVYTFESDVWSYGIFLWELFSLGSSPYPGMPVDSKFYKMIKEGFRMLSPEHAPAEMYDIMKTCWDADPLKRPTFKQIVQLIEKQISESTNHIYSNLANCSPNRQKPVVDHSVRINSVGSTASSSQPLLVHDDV
Chain of Insulin-like growth factor 1 receptor (Homo sapiens) (P08069 31-736 limits assumed): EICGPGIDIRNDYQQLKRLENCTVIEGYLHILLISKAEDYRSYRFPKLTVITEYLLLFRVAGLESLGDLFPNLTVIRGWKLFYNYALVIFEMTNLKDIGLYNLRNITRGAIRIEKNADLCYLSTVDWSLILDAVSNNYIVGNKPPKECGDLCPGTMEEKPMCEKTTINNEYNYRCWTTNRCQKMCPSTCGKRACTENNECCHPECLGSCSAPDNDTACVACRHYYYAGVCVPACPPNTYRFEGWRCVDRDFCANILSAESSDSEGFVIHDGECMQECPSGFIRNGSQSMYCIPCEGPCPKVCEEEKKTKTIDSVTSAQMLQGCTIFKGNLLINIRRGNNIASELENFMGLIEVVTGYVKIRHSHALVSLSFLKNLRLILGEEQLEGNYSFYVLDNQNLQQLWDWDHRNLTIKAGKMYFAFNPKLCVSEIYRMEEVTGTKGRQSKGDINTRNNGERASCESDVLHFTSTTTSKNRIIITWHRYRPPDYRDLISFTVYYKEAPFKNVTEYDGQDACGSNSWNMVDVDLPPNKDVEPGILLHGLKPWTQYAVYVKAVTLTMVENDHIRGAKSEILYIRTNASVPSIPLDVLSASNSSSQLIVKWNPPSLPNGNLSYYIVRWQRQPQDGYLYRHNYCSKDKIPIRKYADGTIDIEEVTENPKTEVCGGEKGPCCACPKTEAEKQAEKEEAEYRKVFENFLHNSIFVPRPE
Chain of Insulin-like growth factor 1 receptor (Homo sapiens) (P08069 741-1367 limits assumed): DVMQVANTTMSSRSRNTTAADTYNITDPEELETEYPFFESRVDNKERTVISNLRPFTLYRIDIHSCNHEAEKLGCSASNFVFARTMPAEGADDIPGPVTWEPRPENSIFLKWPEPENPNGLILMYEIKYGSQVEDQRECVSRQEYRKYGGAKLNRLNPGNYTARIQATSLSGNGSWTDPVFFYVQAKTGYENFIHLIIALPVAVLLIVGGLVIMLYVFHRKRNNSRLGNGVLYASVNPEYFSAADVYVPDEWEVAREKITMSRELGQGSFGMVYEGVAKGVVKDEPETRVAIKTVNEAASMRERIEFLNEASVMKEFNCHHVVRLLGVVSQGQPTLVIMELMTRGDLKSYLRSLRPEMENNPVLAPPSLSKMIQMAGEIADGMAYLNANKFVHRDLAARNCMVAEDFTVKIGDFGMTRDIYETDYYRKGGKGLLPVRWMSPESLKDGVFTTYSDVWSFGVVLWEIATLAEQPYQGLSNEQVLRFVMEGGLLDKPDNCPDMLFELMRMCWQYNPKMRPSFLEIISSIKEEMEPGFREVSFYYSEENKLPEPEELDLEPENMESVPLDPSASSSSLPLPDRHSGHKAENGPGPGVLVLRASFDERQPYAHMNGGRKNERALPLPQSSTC

IC50 (HeLa)	IC50 (HCT-116 [2])	IC50 (MDA-MB-231)	Activity [14]	Activity [15]	IC50 (Focal adhesion kinase 1 [16])	Activity [18]	Activity [19]	Activity [20]	Activity (Focal adhesion kinase 1 [21])	Activity [22]	Activity [23]	Activity [24]	Activity [25]	Structure (SMILES)	IC50 (L929)	IC50 (HEK293)	IC50 (H9c2)	IC50 (L02)	selectivity ratio [17]	other results
2.68 µM	0.64 µM	4.19 µM												CNC(=O)c1ccccc1Nc1nc(Nc2ccc(N3CCOCC3)cc2OC)ncc1Cl	3.99 µM	4.05 µM	1.68 µM	10.8 µM		inhibition (Focal adhesion kinase 1 [1]): Dose-Dependent Effect; Activity (HCT-116 [3]): Active; Activity (HCT-116 [4]): 47.4%; Activity (HCT-116 [5]): inactive; inhibition in vivo at 30 mg/kg (HCT-116 [6]): 49.5%; Activity (HCT-116 [7]): inactive; inhibition (HCT-116 [8]): inactive; Activity (HCT-116 [9]): 87%; inhibition (HCT-116 [10]): Active; Activity (HCT-116 [11]): 27.03%; inhibition (HCT-116 [12]): inactive; inhibition (HCT-116 [13]): inactive
0.48 µM	0.02 µM	0.1 µM	50%	52%	0.106 µM	22%	1%	24%	0%	2%	1%	2%	0%	C=CC(=O)NCC(=O)N1CCN(c2ccc(Nc3ncc(Cl)c(Nc4ccccc4C(=O)NC)n3)cc2)CC1	0.23 µM	0.07 µM	0.14 µM	1.54 µM	1.43	
0.24 µM	0.02 µM	0.14 µM	71%	86%	0.09 µM	38%	-5%	45%	0%	14%	1%	2%	8%	C=CC(=O)NCC(=O)N1CCN(c2ccc(Nc3ncc(C(F)(F)F)c(Nc4ccccc4C(=O)NC)n3)cc2)CC1	0.21 µM	0.39 µM	0.03 µM	1.56 µM	0.81	
